Test results as given in paper PMC5384453, “A multi-functional PEGylated gold(III) compound: potent anti-cancer properties and self-assembly into nanostructures for drug co-delivery” (Chemical Science, 2016).

Tests used:
CHEM-5 = test: In vitro cytotoxicity, MTT assay; assay type: cell-based, human; conditions: CHEM-5, MTT assay, 72 h
Method: (§1) page 7: The gold content of the nanocomposites was determined by dissolving the nanocomposites in conc. HNO3 / conc. HCl solution mixture (9:1, v/v; 30 µL), followed by ICP-MS analysis. […] The nanocomposite (10 µL) was dissolved in acetonitrile (90 µL), and subjected to gentle shaking overnight. The solution mixture was then dried under vacuum, and re- dispersed in 0.1 vol% formic acid in water/acetonitrile (7/3, v/v; 1 mL) solution mixture. […] The mobile phase was 0.1 vol% formic acid in water/acetonitrile (7:3, v/v) solution mixture. […] The cells were then treated with a serial concentration of gold(III) complexes and incubated at 37 °C under a 5% CO2 atmosphere for 72 h. […] After incubation for 72 h, MTT in PBS solution (5 mg/mL, 10 μL) was added to each well. The plates were incubated at 37 °C under a 5% CO2 atmosphere for another 4 h, and the cells were lysed by the addition of SDS solution (10%, w/w) with 0.01 M HCl (100 μL). After incubation in dark at 37 °C overnight, the cell viability after treatment was determined by a microtitre plate reader monitoring at the absorbance at 590 nm, P.7 page 8: which reflected the amount of blue formazan formed. IC50 values were then determined by CompuSyn S6 from three independent measurements. Study on the release of hydrolyzed product from 1 and 2 in aqueous buffer solutions by ICP-MS. […] At a predetermined time, an aliquot of solution was removed and dissolved in HNO3/HCl solution mixture (9:1, v/v; volume of aliquot: volume of acid mixture = 1:3). The solution mixture was heated at 65 °C with shaking overnight, and the gold content was determined by ICP-MS from three independent aliquots. […] 37 °C for 24 h. […] Analysis of cell lysate of HCT116 cells treated with complexes 1 and 3 by UPLC- QTOF-MS. […] All the cells were harvested, washed with PBS solution for three times and dispersed in ice-cold water. The cell suspension was then added to ice-cold acetonitrile (1:3, v/v), vortexed for 5 min, and centrifuged at 10,000 rpm at 4 °C. The supernatant was collected, dried under vacuum and the solid was re-dissolved in acetonitrile (HPLC grade) for UPLC- QTOF-MS experiments. The mobile phase was a mixture of 0.1% formic acid in water (phase A) and 0.1% formic acid in acetonitrile (phase B). […] P.46

L02 = test: In vitro cytotoxicity, MTT assay; assay type: cell-based, human; conditions: 72 h
Method: as §1

human cancer cell lines = test: In vitro cytotoxicity toward cancer cells compared to cisplatin (MTT); assay type: cell-based; conditions: MTT 72 h
Method: The in vitro cytotoxicity of 1–3 and Au1a to human cancer cell lines (HeLa, NCI-H460, HCT116, A2780) and the cisplatin- and doxorubicin-resistant cancer cell lines (A2780cis and A2780adr), as well as normal human colon mucosal epithelial cell line (NCM460), non-tumorigenic immortalized liver cells (MIHA) and normal lung fibroblast cells (CCD-19Lu), was evaluated using a 3-(4,5-dimethyl-2-thiazolyl)-2,5-diphenyltetrazolium bromide (MTT) assay (Table 1; Fig. S5a ^†). […] The low toxicity of 1 was also found in experiments with non-tumorigenic liver L02 and gliocyte CHEM-5 cells (Table S5 ^†). […]
The gold content of the nanocomposites was determined by dissolving the nanocomposites in conc. […]
The content of DOX in the nanocomposites was measured as follows. […] The solution was then diluted and filtered, and the content of DOX in the nanocomposite was determined by UPLC with photodiode array detector using daunorubicin hydrochloride (3.6 µM) as the internal standard. […]
hydrochloride standard over the peak area of daunorubicin hydrochloride (3.6 µM) in the UPLC chromatograms of the doxorubicin hydrochloride standard spiked with daunorubicin hydrochloride (3.6 µM). The encapsulation efficiency of DOX by nanostructures of 1 was calculated by the equation: […]
which reflected the amount of blue formazan formed. IC50 values were then determined by CompuSyn S6 from three independent measurements. […]

Row | Molecule | IC50 (CHEM-5) | IC50 (L02) | times more cytotoxic than cisplatin (human cancer cell lines)
1 | COC(=O)c1ccc(C2=C3C=CC(=N3)C(c3ccccc3)=c3ccc4[n]3[Au+][n]3c(ccc32)C(c2ccccc2)=C2C=CC(=N2)C=4c2ccccc2)cc1.[Cl-] [Compound 3, [Au(TPP–COOCH3)]^+] | 3.5 ± 0.03 µM | 0.2 ± 0.05 µM | 
2 | [Au(TPP–COO–PEG5000–OCH3)]Cl [Compound 1] | 11.3 ± 0.05 µM | 3.8 ± 0.1 µM | 5.1–76.9 times
